Experimental data reported in patent US20100120778A1, “QUINOXALINE-BASED LXR MODULATORS” (Wyeth, priority 2008, published 2010).
Where two headings read alike, the source gives them in different places.

Tests used:
[1] = target: T1, human LXRα (Homo sapiens, UniProt Q13133); test: Ligand-binding test procedure for human LXRα (3H T0901317 tracer, flash plates); conditions: biotinylated hLXRα, tracer 3H T0901317, +4° C. over night
T1 construct: biotin (biotinylated); made in house; host or cells: E. coli
T1 sequence (Q13133 1-447): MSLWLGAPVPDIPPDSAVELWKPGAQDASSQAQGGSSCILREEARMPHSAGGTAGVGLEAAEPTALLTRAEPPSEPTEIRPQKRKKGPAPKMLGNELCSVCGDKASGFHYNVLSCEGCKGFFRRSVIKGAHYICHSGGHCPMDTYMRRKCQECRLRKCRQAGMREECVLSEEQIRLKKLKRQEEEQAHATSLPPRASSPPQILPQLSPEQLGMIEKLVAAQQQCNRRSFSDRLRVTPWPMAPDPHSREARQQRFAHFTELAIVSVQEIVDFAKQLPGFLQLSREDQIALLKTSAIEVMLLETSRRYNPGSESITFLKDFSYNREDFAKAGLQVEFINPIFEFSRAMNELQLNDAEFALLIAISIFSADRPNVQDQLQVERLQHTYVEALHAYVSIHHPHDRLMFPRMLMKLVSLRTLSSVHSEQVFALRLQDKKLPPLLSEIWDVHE
Description: II. Ligand-Binding Test Procedure for Human LXRα.
Receptor source: E. coli extract from cells expressing biotinylated hLXRα. Extract was made in a similar buffer as above, but with 50 mM TRIS.
Washed streptavidin and coated flash plates with wash buffer. Diluted receptor extract to give Bmax˜4000 cpm and add to the wells. Wrapped the plates in aluminum foil and stored them at +4° C. over night.
Made a dilution series in DMSO of the test ligands. Made a 5 nM solution of the radioactive tracer in buffer. Mixed 250 μl diluted tracer with 5 μl of the test ligand from each concentration of the dilution series. Washed the receptor-coated flash plates. Added 200 μl per well of the ligand/radiolabel mixture to the receptor-coated flash plates. Wrapped the plates in aluminum foil and incubate at +4° C. over night.
Aspirated wells, and wash the flashed plates. Sealed the plate. Measured the remaining radioactivity in the plate.

[2] = system: ABCA1 gene (regulation by LXR) in THP-1 cells; test: Quantitative analysis of ABCA1 gene regulation in THP-1 cells (real-time RT-PCR); type: cell-based, human; conditions: for Agonism ABCA1: LXR agonist reference at 1.0 uM as positive control; for EC50: Homo sapiens, read-out: EC50 ABCA1
Description: III. Quantitative Analysis of ABCA1 Gene Regulation In THP-1 Cells. The compounds of formula (I) effect on the regulation of the ABCA1 gene was evaluated using the following procedure. Materials and Methods Cell culture: The THP-1 monocytic cell line (ATCC # TIB-202) was obtained from American Type Culture Collection (Manassas, Va.) and cultured in RPMI 1640 medium (Gibco, Carlsbad, Calif.) containing 10% FBS, 2 mM L-glutamine, and 55 uM beta-Mercaptoethanol (BME). […] Louis, Mo.) for three days to induce differentiation into adherent macrophages. Differentiated THP-1 cells were treated with test compounds or ligands dissolved in DMSO (Sigma, D-8779) in culture medium lacking phorbal ester. […] Dose response effects were measured in duplicate, in the range of 0.001 to 30 micromolar concentrations and treated cells were incubated for an additional 18 hrs prior to RNA isolation. Unstimulated cells treated with vehicle were included as negative controls on each plate. […] L., J. Med. Chem. (2000), 45:1963-1966.). Results of antagonist analysis are expressed as % antagonism and IC50 (in μM). RNA isolation and quantitation: Total cellular RNA was isolated from treated cells cultured in 96-well plates using PrepStation 6100 (Applied Biosystems, Foster City, Calif.), according to the manufacturer's recommendations. RNA was resuspended in ribonuclease-free water and stored at -70° C. prior to analysis. RNA concentrations were quantitated with RiboGreen test procedure, #R-11490 (Molecular Probes, Eugene, Oreg.). Gene expression analysis: Gene-specific mRNA quantitation was performed by real-time PCR with the Perkin Elmer Corp. chemistry on an ABI Prism 7700 Sequence detection system (Applied Biosystems, Foster City, Calif.) according to the manufacturer's instructions. Samples (50-100 ng) of total RNA were assayed in duplicate or triplicate in 50 μl reactions using one-step RT-PCR and the standard curve method to estimate specific mRNA concentrations. Sequences of gene-specific primer and probe sets were designed with Primer Express Software (Applied Biosystems, Foster City, Calif.). The human ABCA1 primer and probe sequences are: forward, [NT], reverse, [NT], and probe, 6[…] and PCR reactions were performed according to PE Applied Biosystem's protocol for Taqman Gold RT-PCR or Qiagen's protocol for Quantitect probe RT-PCR. Relative levels of ABCA1 mRNA are normalized using GAPDH mRNA or 18S rRNA probe/primer sets purchased commercially (Applied Biosystems, Foster City, Calif.). Statistics: Mean, standard deviation and statistical significance of duplicate evaluations of RNA samples were assessed using ANOVA, one-way analysis of variance using SAS analysis.

[3] = target: T2, human LXRβ (Homo sapiens, UniProt P55055); test: Ligand-binding test procedure for human LXRβ (3H T0901317 tracer, flash plates); conditions: biotinylated hLXRβ, tracer 3H T0901317, +4° C. over night
T2 construct: biotin (biotinylated); made in house; host or cells: E. coli
T2 sequence (P55055 1-460): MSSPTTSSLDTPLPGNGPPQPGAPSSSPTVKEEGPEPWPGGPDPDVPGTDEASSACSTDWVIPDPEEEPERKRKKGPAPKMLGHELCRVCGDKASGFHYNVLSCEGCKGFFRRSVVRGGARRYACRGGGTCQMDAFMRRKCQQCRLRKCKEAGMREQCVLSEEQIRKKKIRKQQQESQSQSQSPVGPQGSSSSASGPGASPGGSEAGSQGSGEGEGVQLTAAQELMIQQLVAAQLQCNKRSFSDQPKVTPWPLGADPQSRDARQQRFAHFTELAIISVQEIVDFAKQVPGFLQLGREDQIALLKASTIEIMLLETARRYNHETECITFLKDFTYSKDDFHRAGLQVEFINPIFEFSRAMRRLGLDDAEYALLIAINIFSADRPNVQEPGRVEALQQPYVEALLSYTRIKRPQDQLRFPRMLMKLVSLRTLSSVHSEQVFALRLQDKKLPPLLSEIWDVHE

[4] = Gene regulation by LXR (THP1), differentiated THP-1 cells, 18 hrs
[5] = Gene regulation by LXR (THP1), differentiated THP-1 cells, 18 hrs, ABCA1 mRNA

IC50 [1] | IC50 [3] | EC50 [2, 5] | SMILES | Agonism ABCA1 [2, 4] | EC50 ([2]; THP-1, 18 h)
752 nM | 49 nM | 1090 nM | Cc1nc2c(C(F)(F)F)cccc2nc1-c1ccc(-c2cccc(S(C)(=O)=O)c2)cc1 [Example 1, 3-methyl-2-[3′-(methylsulfonyl)biphenyl-4-yl]-5-(trifluoromethyl)quinoxaline] | 79% | –
405 nM | 128 nM | 4420 nM | Cc1nc2c(C(F)(F)F)cccc2nc1-c1cc(Oc2cccc(S(=O)(=O)CCCC#N)c2)ccc1Cl [Example 77, 4-[(3-{4-chloro-3-[3-methyl-5-(trifluoromethyl)quinoxalin-2-yl]phenoxy}phenyl)sulfonyl]-butanenitrile] | 45% | –
435 nM | 12 nM | – | CCS(=O)(=O)c1cccc(Oc2ccc(Cl)c(-c3nc4cccc(C(F)(F)F)c4nc3C)c2)c1 [Example 56, 2-{2-chloro-5-[3-(ethylsulfonyl)phenoxy]phenyl}-3-methyl-5-(trifluoromethyl)quinoxaline] | – | –
3530 nM | 869 nM | – | Cc1nc2c(Cl)cccc2nc1Oc1ccc(-c2cccc(NS(C)(=O)=O)c2)cc1 [Example 93, N-{4′-[(5-chloro-3-methylquinoxalin-2-yl)oxy]biphenyl-3-yl}methanesulfonamide] | – | –
> 1000 nM | 3020 nM | – | Cc1nc2cccc(C#N)c2nc1-c1ccc(-c2cccc(S(C)(=O)=O)c2)cc1 [Example 72, 2-methyl-3-[3′-(methylsulfonyl)biphenyl-4-yl]quinoxaline-5-carbonitrile] | – | –
> 1000 nM | 361 nM | – | Cc1nc2ccccc2nc1-c1cc(Oc2cccc(S(C)(=O)=O)c2)ccc1Cl [Example 66, 2-{2-chloro-5-[3-(methylsulfonyl)phenoxy]phenyl}-3-methylquinoxaline] | – | –
2190 nM | 287 nM | – | Cc1nc2c(C(F)(F)F)cccc2nc1-c1cc(Oc2cccc(S(=O)(=O)CCCF)c2)ccc1Cl [Example 75, 2-(2-chloro-5-{3-[(3-fluoropropyl)sulfonyl]phenoxy}phenyl)-3-methyl-5-(trifluoromethyl)-quinoxaline] | – | –
818 nM | 108 nM | – | Cc1nc2c(Cl)cccc2nc1Oc1cccc(-c2cccc(S(C)(=O)=O)c2)c1 [Example 80, 5-chloro-3-methyl-2-{[3′-(methylsulfonyl)biphenyl-3-yl]oxy}quinoxaline] | – | –
401 nM | 204 nM | – | Cc1nc2c(C(F)(F)F)cccc2nc1-c1cc(Oc2cccc(S(=O)(=O)CCCCl)c2)ccc1Cl [Example 76, 2-(2-chloro-5-{3-[(3-chloropropyl)sulfonyl]phenoxy}phenyl)-3-methyl-5-(trifluoromethyl)-quinoxaline] | – | –
> 1000 nM | 240 nM | – | CCS(=O)(=O)c1cccc(-c2cccc(Oc3nc4cccc(Cl)c4nc3C)c2)c1 [Example 81, 5-chloro-2-{[3′-(ethylsulfonyl)biphenyl-3-yl]oxy}-3-methylquinoxaline] | – | –
> 1000 nM | 398 nM | – | Cc1nc2cccc(C(F)(F)F)c2nc1-c1ccc(-c2cccc(S(C)(=O)=O)c2)cc1F [Example 6, 3-[3-fluoro-3′-(methylsulfonyl)biphenyl-4-yl]-2-methyl-5-(trifluoromethyl)quinoxaline] | – | –
> 1000 nM | 390 nM | – | Cc1nc2c(Cl)cccc2nc1-c1cccc(Oc2cccc(S(C)(=O)=O)c2)c1 [Example 5, 5-chloro-3-methyl-2-{3-[3-(methylsulfonyl)phenoxy]phenyl}quinoxaline] | – | –
638 nM | 89 nM | – | Cc1nc2cccc(C(F)(F)F)c2nc1-c1cc(Oc2cc(F)cc(S(C)(=O)=O)c2)ccc1Cl [Example 64, 3-{2-chloro-5-[3-fluoro-5-(methylsulfonyl)phenoxy]phenyl}-2-methyl-5-(trifluoromethyl)-quinoxaline] | – | –
947 nM | 78.9 nM | – | Cc1nc2c(C(F)(F)F)cccc2nc1-c1cc(Oc2cccc(S(=O)(=O)C(C)C)c2)ccc1Cl [Example 57, 2-(2-chloro-5-{3-[(1-methylethyl)sulfonyl]phenoxy}phenyl)-3-methyl-5-(trifluoromethyl)-quinoxaline] | – | –
1620 nM | 1460 nM | – | Cc1nc2c(C(F)(F)F)cccc2nc1-c1cc(Oc2ccccc2S(C)(=O)=O)ccc1Cl [Example 46, 2-{2-chloro-5-[2-(methylsulfonyl)phenoxy]phenyl}-3-methyl-5-(trifluoromethyl)quinoxaline] | – | –
1020 nM | 127 nM | – | Cc1nc2c(C(F)(F)F)cccc2nc1-c1cccc(Oc2cccc(S(C)(=O)=O)c2)c1 [Example 2, 3-methyl-2-{3-[3-(methylsulfonyl)phenoxy]phenyl}-5-(trifluoromethyl)quinoxaline] | – | –

SMILES | IC50 [1] | IC50 [3] | EC50 [2, 5] | Agonism ABCA1 [2, 4] | EC50 ([2]; THP-1, 18 h)
CNS(=O)(=O)c1cccc(-c2ccc(-c3nc4cccc(C(F)(F)F)c4nc3C)cc2)c1 [Example 53, N-methyl-4′-[3-methyl-5-(trifluoromethyl)quinoxalin-2-yl]biphenyl-3-sulfonamide] | > 1000 nM | – | – | 55% | 1400 nM
CCS(=O)(=O)c1cccc(-c2ccc(-c3nc4cccc(C(F)(F)F)c4nc3C)cc2)c1 [Example 31, 2-[3′-(ethylsulfonyl)biphenyl-4-yl]-3-methyl-5-(trifluoromethyl)quinoxaline] | 265 nM | – | – | 65% | 890 nM
